Measured values as given in publication PMC11249646, “Small-Molecule Disruptors of the Interaction between Calcium- and Integrin-Binding Protein 1 and Integrin αIIbβ3 as Novel Antiplatelet Agents” (ACS Pharmacology & Translational Science, 2024).
Where two headings read alike, the source gives them in different places.

Molecular target: T1, CIB1 and αIIb interaction (CIB1-GST : F-αIIb peptide) (Homo sapiens, UniProt Q99828)
T1 construct: made in house; host or cells: BL-21 plus RIL cells (E. coli)
T1 sequence (Q99828 1-191): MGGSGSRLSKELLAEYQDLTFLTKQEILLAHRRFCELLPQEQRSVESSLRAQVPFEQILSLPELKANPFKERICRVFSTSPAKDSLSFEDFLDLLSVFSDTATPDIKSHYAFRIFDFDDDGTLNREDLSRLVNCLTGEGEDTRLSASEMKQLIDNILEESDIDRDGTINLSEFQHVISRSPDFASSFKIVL
Assay: FP assay, 1536-well qHTS format (primary and confirmatory screen)
Type: binding
Details: for Efficacy (%): negative = inhibition; for Curve Class: negative sign = inhibitory curve; for IC50: read-out: IC50

[1] = qHTS primary screen of LOPAC/NPACT libraries
[2] = qHTS primary screen hits, Table S2
[3] = qHTS primary screen hits, Table S2, several classes where COUNT > 1

Row | SMILES | Efficacy (%) [1] | Curve Class [1] | IC50 [1] | Efficacy (%) [2] | IC50 [2] | further results
1 | CC(C)(Sc1ccc(CCN(CCCCC2CCCCC2)C(=O)NC2CCCCC2)cc1)C(=O)O [NCGC00015480-08] | -28% | -1.4 | 12.6 µM | – | – | –
2 | CC(C)=CCC1C(=O)N(c2ccccc2)N(c2ccccc2)C1=O [NCGC00164582-02] | – | – | – | -28% | 50.1 µM | Curve Class [3]: -2.4
3 | O=C(Nc1nc(-c2ccccc2)cs1)c1ccncc1NS(=O)(=O)c1ccc(F)cc1.O=C(O)C(F)(F)F [NCGC00344931-02] | – | – | – | -38% | 53.2 µM | –
4 | O=C(Nc1cccc(C(=O)Nc2ccc(S(=O)(=O)O)c3cc(S(=O)(=O)O)cc(S(=O)(=O)O)c23)c1)Nc1cccc(C(=O)Nc2ccc(S(=O)(=O)O)c3cc(S(=O)(=O)O)cc(S(=O)(=O)O)c23)c1 [NCGC00025069-04] | -37% | -1.4 | 0.316 µM | – | – | –
5 | COc1ccc(-c2csc(NC(=O)c3ccncc3NS(=O)(=O)c3ccc(C)cc3)n2)cc1.O=C(O)C(F)(F)F [NCGC00319009-01] | – | – | – | -53% | 56.2 µM | Curve Class [3]: -2.4
6 | Cc1cc(C2N=C(Nc3nc4ccccc4o3)NC3=C2C(=O)CCC3)n[nH]1.O=C(O)C(F)(F)F (stereo not shown) [NCGC00229726-01] | – | – | – | -26% | 56.2 µM | Curve Class [3]: -2.4
7 | COc1cc(NS(=O)(=O)c2ccc([N+](=O)[O-])cc2)c2ncccc2c1 [NCGC00161705-01] | – | – | – | -40% | 56.2 µM | Curve Class [3]: -2.4
8 | CCCCc1ncc(/C=C(\Cc2cccs2)C(=O)O)n1Cc1ccc(C(=O)O)cc1.CS(=O)(=O)O [NCGC00261493-01] | -9% | -1.4 | 31.6 µM | – | – | –
9 | COc1ccc2c(c[n+](C)c3c4cc5c(cc4ccc23)OCO5)c1OC [NCGC00015225-07] | – | – | – | – | – | Efficacy (%) (qHTS FP screen hits, Table S2): -30%; IC50 (qHTS FP screen hits, Table S2): 24.6 µM
10 | Cc1c(Cl)cccc1-n1c(CCC(=O)O)ccc1-c1cccs1 [NCGC00100415-03] | – | – | – | -50% | 50.1 µM | Curve Class [3]: -2.2
11 | C=C1C(=O)O[C@@H]2C/C(C)=C\C(=O)/C=C(\C)[C@@H](OC(=O)/C(C)=C\C)[C@H](O)[C@@H]12 [NCGC00380290-01] | -23% | -1.4 | 4.5 µM | – | – | –
12 | C#CCCC(=O)Nc1sc2c(c1-c1nc3ccccc3s1)CCN(C(C)C)C2.O=C(O)C(F)(F)F [NCGC00185086-01] | – | – | – | -24% | 3.5 µM | Curve Class [2]: -1.4
13 | CC(=O)NC(c1cccs1)c1cc(Br)c2cccnc2c1O (stereo not shown) [NCGC00188370-02] | – | – | – | – | – | Efficacy (%) (qHTS FP screen hits, Table S2): -40%; IC50 (qHTS FP screen hits, Table S2): 45.5 µM
14 | O=S1(=O)N=C(Oc2ccccc2)c2ccccc21 [NCGC00079022-02] | – | – | – | -23% | 79.4 µM | Curve Class [3]: -2.4
15 | CC1=NN(c2ccccc2)C(=O)C1 [NCGC00018218-10] | – | – | – | -46% | 50.1 µM | Curve Class [3]: -2.2
16 | CCOC(=O)c1c(NC(=O)CN2CCCCC2)sc2c1CCN(C(=O)OCC)C2.O=C(O)C(F)(F)F [NCGC00092717-02] | – | – | – | -31% | 89.1 µM | Curve Class [2]: -2.4
17 | O=C(CCCN1CCC(n2c(=O)[nH]c3ccccc32)CC1)c1ccc(F)cc1 [NCGC00016602-04] | – | – | – | -58% | 50.1 µM | Curve Class [2]: -2.4
18 | CN(C)c1ccc(-c2ccnc(O)c2N)cc1 [NCGC00181386-01] | – | – | – | -24% | 79.4 µM | Curve Class [3]: -2.4
19 | COc1cccc2c1C(=O)c1c(O)c3c(c(O)c1C2=O)C[C@@](O)(C(=O)CO)CC3OC1CC(N2CCOC(OC)C2)C(O)C(C)O1 (stereo partly shown) [NCGC00319019-01] | – | – | – | -40% | 10 µM | Curve Class [2]: -1.4

Row | SMILES | Efficacy (%) [1] | Curve Class [1] | IC50 [1] | Efficacy (%) [2] | IC50 [2] | further results
20 | CN1Cc2c(N)cccc2C(c2ccccc2)C1.O=C(O)/C=C\C(=O)O (stereo not shown) [NCGC00015727-06] | – | – | – | -62% | 50.1 µM | Curve Class [2]: -2.2
21 | N#CCc1cc(-c2ccc(F)c(F)c2)nn1-c1nc(C(=O)O)cs1.O=C(O)C(F)(F)F [NCGC00356771-02] | – | – | – | -16% | 50.1 µM | Curve Class [2]: -2.4
22 | Cc1c(O)cc2c(c1O)COC1(O)CCCOC21 (stereo not shown) [NCGC00380856-01] | -23% | -2.4 | 50.1 µM | – | – | –
23 | O=C1NCc2c1c1c3ccccc3[nH]c1c1[nH]c3ccccc3c21 [NCGC00261167-01] | -24% | -1.4 | 1.4 µM | – | – | –
24 | CN(C)c1ccc(C(=C2C=CC(=[N+](C)C)C=C2)c2ccc(N(C)C)cc2)cc1.[Cl-] [NCGC00091112-09] | – | – | – | -60% | 56.2 µM | Curve Class [2]: -2.4
25 | O=C(Nc1ccccc1)c1ccccc1NC(=O)C1CCCCC1 [NCGC00189487-01] | – | – | – | -27% | 56.2 µM | Curve Class [3]: -2.4
26 | C=Cc1c(C)c2cc3[nH]c(cc4nc(cc5nc(cc1[nH]2)C(C)=C5CCC(=O)O)C(CCC(=O)O)=C4C)c(C)c3C=C [NCGC00015844-10] | – | – | – | – | – | Efficacy (%) (qHTS FP screen hits, Table S2): -75%; Curve Class (qHTS FP screen hits, Table S2, one class per curve where COUNT > 1): -2.2; IC50 (qHTS FP screen hits, Table S2): 42.2 µM
27 | CS(=O)(=O)O.CSc1ccc2c(c1)C(N1CCN(C)CC1)Cc1ccccc1S2 (stereo not shown) [NCGC00024665-06] | -28% | -2.4 | 56.2 µM | – | – | –
28 | O=C(O)C(F)(F)F.O=C1CC(c2ccccc2Br)c2sc(N3CCOCC3)nc2N1 (stereo not shown) [NCGC00488255-02] | – | – | – | -54% | 79.4 µM | Curve Class [3]: -2.4
29 | CCC(=O)NC(c1cccs1)c1cc(Cl)c2cccnc2c1O (stereo not shown) [NCGC00188867-01] | – | – | – | -29% | 44.7 µM | Curve Class [3]: -2.4
30 | CC[C@@]1(O)C(=O)OCc2c1cc1n(c2=O)Cc2cc3c(CN(C)C)c(O)ccc3nc2-1 [NCGC00014925-07] | – | – | – | -147% | 24.5 µM | –
31 | CC1=C(C(=O)Nc2ccc(C(=O)O)cc2)C(c2ccccc2Cl)N=C(Nc2nc3ccccc3o2)N1.O=C(O)C(F)(F)F (stereo not shown) [NCGC00351025-01] | – | – | – | -29% | 50.1 µM | Curve Class [3]: -2.4
32 | O=S(=O)(O)c1ccc2cc(/N=N/c3cc(S(=O)(=O)O)c4cccnc4c3O)ccc2c1 [NCGC00013917-09] | – | – | – | -57% | 14.3 µM | –
33 | Cc1cc(SCc2sc(-c3ccc(Cl)cc3)nc2C)ccc1OCC(=O)O.O=C(O)C(F)(F)F [NCGC00319056-01] | – | – | – | -32% | 56.2 µM | Curve Class [2]: -2.4
34 | O=C(N/N=C/c1ccc([N+](=O)[O-])o1)c1ccc(O)cc1 [NCGC00179496-04] | – | – | – | – | 44.7 µM | –
35 | N#CSc1cc(SC#N)c(N)nc1N [NCGC00371134-01] | -31% | -2.4 | 14.1 µM | – | – | –
36 | CCC(C)(C)n1nnnc1C(c1cc2ccc(OC)cc2[nH]c1=O)N1CCc2ccccc2C1.O=C(O)C(F)(F)F (stereo not shown) [NCGC00350929-01] | – | – | – | -29% | 56.2 µM | Curve Class [3]: -2.4
37 | CCCCCCCCCCCCCCC[C@H](O)[C@@H](N)CO [NCGC00015362-05] | – | – | – | -110% | 100 µM | Curve Class [3]: -2.3

The next lines start with results.

Row | Efficacy (%) [1] | Curve Class [1] | IC50 [1] | SMILES | Efficacy (%) [2] | IC50 [2] | further results
38 | – | -1.2 | 3.2 µM | Oc1cc(O)cc(/C=C/c2ccc(O)c(O)c2)c1 [NCGC00094226-07] | – | – | –
39 | -29% | -1.4 | 15.8 µM | CC(C)c1ccc2c(c1)c(SC(C)(C)C)c(CC(C)(C)C(=O)O)n2Cc1ccc(Cl)cc1 [NCGC00162249-03] | – | – | –
40 | -32% | -2.4 | 50.1 µM | CN(C)c1ccc(NC(=O)NS(=O)(=O)c2ccc(Cl)cc2)cc1 [NCGC00485899-01] | – | – | –
41 | -26% | -1.4 | 5.6 µM | N#C/C(=C1\Nc2ccccc2S1)c1ccnc(NCCc2cccnc2)n1 [NCGC00387772-02] | – | – | –
42 | -19% | -2.2 | 17.8 µM | COc1ccc(NC(=O)c2ccc(-c3ccc(-c4noc(C)n4)cc3C)cc2)cc1N1CCN(C)CC1.Cl [NCGC00015476-05] | – | – | –
43 | -28% | -2.4 | 44.7 µM | C=CC(=O)Nc1cccc(Oc2nc(Nc3ccc(N4CCN(C)CC4)cc3)ncc2Cl)c1 [NCGC00346496-04] | – | – | –
44 | -37% | -2.2 | 31.6 µM | O=c1oc(Cl)c(Cl)c2ccccc12 [NCGC00015369-06] | – | – | –
45 | -26% | -2.4 | 39.8 µM | Cl.O=c1cc(CN2CCOCC2)occ1OCCCCCSc1ccnc2cc(C(F)(F)F)ccc12 [NCGC00188866-05] | – | – | –
46 | -16% | -1.2 | 39.8 µM | CC(=O)N[C@@H](Cc1c[nH]c2ccccc12)C(=O)OCc1cc(C(F)(F)F)cc(C(F)(F)F)c1 [NCGC00024832-04] | – | – | –
47 | -28% | -2.4 | 56.2 µM | COc1c(C)c(OCC(O)C(C)(C)O)cc2c1CNC2=O (stereo not shown) [NCGC00385487-01] | – | – | –
48 | -33% | -2.4 | 50.1 µM | Nc1nccn2c(C3CCC(C(=O)O)CC3)nc(-c3cc4cccc(Cl)c4[nH]3)c12 (stereo not shown) [NCGC00390408-01] | – | – | –
49 | -18% | -1.2 | 3.5 µM | O=C1Nc2ccccc2/C1=C1/Nc2ccccc2/C1=N\O [NCGC00015545-07] | – | – | –
50 | -31% | -2.4 | 79.4 µM | Cc1cc2occ(CN(C)CCN(C)Cc3cn(-c4cccc(C(F)(F)F)c4)c4ccccc34)c(=O)c2cc1C.Cl [NCGC00386701-02] | – | – | –
